Key:
[1] = Peroral dose causing 50% death of the mice population; type: ADME, organism-based; settings: mouse, in vivo, po
[2] = Minimum concentration which causes 50% of the Artemia salina larvae to lose mobility; type: ADME, organism-based; settings: in vivo
Rattus norvegicus [3] = assay: Percent Edema variation in Carrageenan-induced paw edema test at a dose of 100 mg/kg perorally in rats after 60 min; type: functional; settings: route oral
Rattus norvegicus [4] = assay: Animals with Hyperemia in Carrageenan-induced paw edema test at a dose of 100 mg/kg perorally in rats; type: functional; settings: route oral
Rattus norvegicus [5] = assay: Percent Edema variation in Carrageenan-induced paw edema test at a dose of 100 mg/kg perorally in rats after 120 min; type: functional; settings: route oral
Rattus norvegicus [6] = assay: Percent Edema variation in Carrageenan-induced paw edema test at a dose of 100 mg/kg perorally in rats after 180 min (p<0.01); type: functional; settings: route oral
Rattus norvegicus [7] = assay: Animals with Ulcers in Carrageenan-induced paw edema test at a dose of 100 mg/kg perorally in rats; type: functional; settings: route oral
Rattus norvegicus [8] = assay: Percent Edema variation in Carrageenan-induced paw edema test at a dose of 100 mg/kg perorally in rats after 180 min (p<0.001); type: functional; settings: route oral
Rattus norvegicus [9] = assay: Reaction time in Hot plate test at a dose of 100 mg/kg perorally in rats after 120 min (p<0.01); type: functional; settings: route oral
Rattus norvegicus [10] = assay: Reaction time in Hot plate test at a dose of 100 mg/kg perorally in rats after 60 min (p<0.01); type: functional; settings: route oral
Rattus norvegicus [11] = assay: Number of writhings in Acetic acid Writhing test at a dose of 100 mg/kg perorally in rats; type: functional; settings: route oral
Rattus norvegicus [12] = assay: Analgesic activity was determined using acetic acid writing test at a dose of 100 mg/kg perorally in rats. (p<0.01); type: functional; settings: route oral
Rattus norvegicus [13] = assay: Percent Edema variation in Carrageenan-induced paw edema test at a dose of 100 mg/kg perorally in rats after 120 min (p<0.05); type: functional; settings: route oral
Rattus norvegicus [14] = assay: Reaction time in Hot plate test at a dose of 100 mg/kg perorally in rats after 180 min (p<0.05); type: functional; settings: route oral
Rattus norvegicus [15] = assay: Percent Edema variation in Carrageenan-induced paw edema test at a dose of 100 mg/kg perorally in rats after 180 min; type: functional; settings: route oral
Rattus norvegicus [16] = assay: Reaction time in Hot plate test at a dose of 100 mg/kg perorally in rats after 120 min (p<0.05); type: functional; settings: route oral
Rattus norvegicus [17] = assay: Analgesic activity was determined using acetic acid writing test at a dose of 100 mg/kg perorally in rats.(p<0.05); type: functional; settings: route oral
Rattus norvegicus [18] = assay: Reaction time in Hot plate test at a dose of 100 mg/kg perorally in rats after 60 min (p<0.05); type: functional; settings: route oral
Rattus norvegicus [19] = assay: Analgesic activity was determined using acetic acid writing test at a dose of 100 mg/kg perorally in rats.; type: functional; settings: route oral
Rattus norvegicus [20] = assay: Reaction time in Hot plate test at a dose of 100 mg/kg perorally in rats after 180 min; type: functional; settings: route oral
Rattus norvegicus [21] = assay: Reaction time in Hot plate test at a dose of 100 mg/kg perorally in rats after 60 min; type: functional; settings: route oral
Rattus norvegicus [22] = assay: Percent Edema variation in Carrageenan-induced paw edema test at a dose of 100 mg/kg perorally in rats after 60 min (p<0.01); type: functional; settings: route oral
Rattus norvegicus [23] = assay: Reaction time in Hot plate test at a dose of 100 mg/kg perorally in rats after 120 min; type: functional; settings: route oral
Rattus norvegicus [24] = assay: Animals with Ulcers in Carrageenan-induced paw edema test at a dose of 5 mg/kg perorally in rats; type: functional; settings: route oral
Rattus norvegicus [25] = assay: Animals with Hyperemia in Carrageenan-induced paw edema test at a dose of 5 mg/kg perorally in rats; type: functional; settings: route oral
Rattus norvegicus [26] = assay: Reaction time in Hot plate test at a dose of 5 mg/kg perorally in rats after 60 min (p<0.01); type: functional; settings: route oral
Rattus norvegicus [27] = assay: Number of writhings in Acetic acid Writhing test at a dose of 5 mg/kg perorally in rats; type: functional; settings: route oral
Rattus norvegicus [28] = assay: Analgesic activity was determined using acetic acid writing test at a dose of 5 mg/kg perorally in rats. (p<0.01); type: functional; settings: route oral
Rattus norvegicus [29] = assay: Percent Edema variation in Carrageenan-induced paw edema test at a dose of 5 mg/kg perorally in rats after 120 min; type: functional; settings: route oral
Rattus norvegicus [30] = assay: Percent Edema variation in Carrageenan-induced paw edema test at a dose of 5 mg/kg perorally in rats after 180 min (p<0.01); type: functional; settings: route oral
Rattus norvegicus [31] = assay: Reaction time in Hot plate test at a dose of 5 mg/kg perorally in rats after 120 min (p<0.01); type: functional; settings: route oral
Rattus norvegicus [32] = assay: Reaction time in Hot plate test at a dose of 5 mg/kg perorally in rats after 180 min (p<0.01); type: functional; settings: route oral
Rattus norvegicus [33] = assay: Percent Edema variation in Carrageenan-induced paw edema test at a dose of 5 mg/kg perorally in rats after 60 min; type: functional; settings: route oral

For `COc1ccc(OC)c([C@H]2SCC(=O)N2CCN2C(=O)CS[C@H]2c2cc(OC)ccc2OC)c1`, the LD50 [1] was greater than 1000 mg/kg, the LC50 [2] was greater than 1000 µg/mL and the Edema variation (Rattus norvegicus [3]) was -12.48%. For the same compound, the Animals (Rattus norvegicus [4]) was 40%, the Edema variation (Rattus norvegicus [5]) was -13.5% and the Edema variation (Rattus norvegicus [6]) was -39.06%. It also gave an Animals (Rattus norvegicus [7]) of 0%.

Work on `COc1ccc(C2SCC(=O)N2CCN2C(=O)CSC2c2ccc(OC)c(OC)c2)cc1OC` (stereo not drawn) yielded an Edema variation (Rattus norvegicus [8]) of -76.62%, an LD50 [1] greater than 1000 mg/kg and a Reaction time (Rattus norvegicus [9]) of 26.7 s. It also gave a Reaction time (Rattus norvegicus [10]) of 30.4 s, an LC50 [2] greater than 1000 µg/mL and a No. of writhings (Rattus norvegicus [11]) of 9.6. The Edema variation (Rattus norvegicus [3]) was -2.13%, the inhibition in vivo at 100 mg/kg (Rattus norvegicus [12]) was 53% and the Edema variation (Rattus norvegicus [13]) was -30.13%. For the same compound, the Animals (Rattus norvegicus [4]) was 20%, the Animals (Rattus norvegicus [7]) was 0% and the Reaction time (Rattus norvegicus [14]) was 16.8 s.

For `COc1ccc(OC)c(C2SCC(=O)N2CCN2C(=O)CSC2c2cc(OC)ccc2OC)c1` (stereo not drawn), the Edema variation (Rattus norvegicus [15]) was -70.22%, the LD50 [1] was greater than 1000 mg/kg and the LC50 [2] was greater than 1000 µg/mL. It also gave an Edema variation (Rattus norvegicus [3]) of 33.55%, an Animals (Rattus norvegicus [4]) of 40% and an Edema variation (Rattus norvegicus [5]) of -24.62%. For the same compound, the Animals (Rattus norvegicus [7]) was 0%.

`O=C1CSC(c2ccc(Cl)c(Cl)c2)N1CCN1C(=O)CSC1c1ccc(Cl)c(Cl)c1` (stereo not drawn) showed an Edema variation (Rattus norvegicus [15]) of -27.48%, an LD50 [1] greater than 1000 mg/kg and an LC50 [2] greater than 1000 µg/mL. It also gave a Reaction time (Rattus norvegicus [16]) of 18.4 s, a No. of writhings (Rattus norvegicus [11]) of 15.2 and an Edema variation (Rattus norvegicus [3]) of 14.04%. The inhibition in vivo at 100 mg/kg (Rattus norvegicus [17]) was 24%, the Reaction time (Rattus norvegicus [18]) was 20 s and the Edema variation (Rattus norvegicus [13]) was -31.41%. It also gave an Animals (Rattus norvegicus [4]) of 40%, an Animals (Rattus norvegicus [7]) of 0% and a Reaction time (Rattus norvegicus [14]) of 19.8 s.

With `COc1ccc(C2SCC(=O)N2CCN2C(=O)CSC2c2ccc(OC)c(F)c2)cc1F` (stereo not drawn) the LD50 [1] was greater than 1000 mg/kg, the inhibition in vivo at 100 mg/kg (Rattus norvegicus [19]) was 20% and the LC50 [2] was greater than 1000 µg/mL. It also gave a Reaction time (Rattus norvegicus [16]) of 16.8 s, a No. of writhings (Rattus norvegicus [11]) of 16.4 and an Edema variation (Rattus norvegicus [3]) of 8.6%. For the same compound, the Animals (Rattus norvegicus [4]) was 20%, the Edema variation (Rattus norvegicus [5]) was -23.83% and the Reaction time (Rattus norvegicus [20]) was 13.5 s. For the same compound, the Edema variation (Rattus norvegicus [6]) was -38.94%, the Reaction time (Rattus norvegicus [21]) was 13.4 s and the Animals (Rattus norvegicus [7]) was 0%.

Work on `COc1cccc(C2SCC(=O)N2CCN2C(=O)CSC2c2cccc(OC)c2)c1` (stereo not drawn) yielded an Edema variation (Rattus norvegicus [15]) of -18.31%, an LD50 [1] greater than 1000 mg/kg and an inhibition in vivo at 100 mg/kg (Rattus norvegicus [19]) of 4%. It also gave an Edema variation (Rattus norvegicus [22]) of -34.4%, an LC50 [2] greater than 1000 µg/mL and a Reaction time (Rattus norvegicus [23]) of 13 s. The No. of writhings (Rattus norvegicus [11]) was 19.5, the Animals (Rattus norvegicus [4]) was 20% and the Edema variation (Rattus norvegicus [5]) was -26.3%. It also gave a Reaction time (Rattus norvegicus [20]) of 12.9 s, a Reaction time (Rattus norvegicus [21]) of 13.4 s and an Animals (Rattus norvegicus [7]) of 0%.

`COc1ccc2c(c1)c(CC(=O)O)c(C)n2C(=O)c1ccc(Cl)cc1` [INDOMETHACIN] showed an Animals (Rattus norvegicus [24]) of 80%, an Animals (Rattus norvegicus [25]) of 100% and a Reaction time (Rattus norvegicus [26]) of 26.1 s. The LD50 [1] was 15 mg/kg, the No. of writhings (Rattus norvegicus [27]) was 4 and the inhibition in vivo at 5 mg/kg (Rattus norvegicus [28]) was 80%. It also gave an Edema variation (Rattus norvegicus [29]) of -10.85%, an Edema variation (Rattus norvegicus [30]) of -50.86% and a Reaction time (Rattus norvegicus [31]) of 27.1 s. For the same compound, the Reaction time (Rattus norvegicus [32]) was 28 s and the Edema variation (Rattus norvegicus [33]) was -15.4%.

From ChEMBL document CHEMBL1133821, “Synthesis and antiinflammatory, analgesic activity of 3,3'-(1,2-ethanediyl)-bis[2-aryl-4-thiazolidinone] chiral compounds. Part 10” (Bioorg Med Chem Lett, 2001)
